Biological target: T1, TTL (Canis lupus familiaris, UniProt A0A8I3N5B1)
T1 construct: His-Tag (N, cleaved yes); Sumo (N, cleaved yes); made in house; host or cells: E. coli BL21 (DE3)
T1 sequence (A0A8I3N5B1 1-377): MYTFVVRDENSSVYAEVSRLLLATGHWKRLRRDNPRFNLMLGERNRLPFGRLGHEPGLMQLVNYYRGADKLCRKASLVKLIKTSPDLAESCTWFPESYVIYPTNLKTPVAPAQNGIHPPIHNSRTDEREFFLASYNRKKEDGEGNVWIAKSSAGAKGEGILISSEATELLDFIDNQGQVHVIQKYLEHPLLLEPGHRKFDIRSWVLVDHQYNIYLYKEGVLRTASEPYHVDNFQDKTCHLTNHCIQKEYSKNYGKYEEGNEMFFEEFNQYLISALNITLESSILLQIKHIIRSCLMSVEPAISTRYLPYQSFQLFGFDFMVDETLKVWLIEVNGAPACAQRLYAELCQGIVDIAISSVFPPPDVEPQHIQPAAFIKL
Test: TTL mediated labelling of Tub-tagged proteins with coumarin derivative 7 (SDS-PAGE, in-gel fluorescence)
Type: biochemical
Details: 1 μM TTL, 37°, 1-6 h
Description: TTL (Canis lupus) having NCBI Accession number XP_540180.2 was expressed in E. coli (BL21 DE3) as Sumo-TTL fusion protein with an N-terminal His-Tag. Cells were induced with 0.5 mM IPTG and incubated at 18° C. for 18 h. Lysis was performed in presence of Lysozyme (100 μg/ml), DNAse (25 μg/ml) and PMSF (2 mM) followed by sonification (Branson® Sonifier; 16×8sec, 20% Amplitude) and debris centrifugation at 20.000 g for 30 min. His-Sumo-TTL was purified using a 5 ml His-Trap. For removal of the Sumo-Tag, peak fractions were incubated with SenP2 protease at 4° C. overnight. A second His-Trap run then removed the Sumo fraction. Purified protein was then desalted on a PD10 column (GE Healthcare); buffer was exchanged to MES/K pH 6.8 (20 mM MES, 100 mM KCl, 10 mM MgCl2). Protein aliquots were shock-frozen and stored at −80° C. at 0.8 g/l. Functionalization reactions were performed in a 150 μL solution consisting of 20 mM MES/K pH 7.0, 100 mM KCl, 10 mM MgCl2, 2.5 mM ATP, 1 mM (7), 1 μM TTL, 5 μM ubiquitin and 5 mM DTT. The mixture was incubated at 37° for 1-6 h. Proteins were separated and analysed by SDS-PAGE and a ChemiDoc™ XRS+gel imaging system (Bio-Rad, Hercules, Calif., US). Functionalization reactions were performed in a 150 μL solution consisting of 20 mM MES/K pH 7.0, 100 mM KCl, 10 mM MgCl2, 2.5 mM ATP, 1 mM (7), 1 μM TTL, 5 μM nanobody and 5 mM DTT. The mixture was incubated at 37° for 1-6 h. Proteins were separated and analysed by SDS-PAGE and a ChemiDoc™ XRS+gel imaging system (Bio-Rad, Hercules, Calif., US). Functionalization reactions were performed in a 150 μL solution consisting of 20 mM MES/K pH 7.0, 100 mM KCl, 10 mM MgCl2, 2.5 mM ATP, 1 mM (24), 1 μM TTL, 5 μM nanobody and 5 mM DTT. The mixture was incubated at 37° for 1-6 h. Proteins were separated and analysed by SDS-PAGE and a ChemiDoc™ XRS+gel imaging system (Bio-Rad, Hercules, Calif., US).

N[C@@H](Cc1cc(=O)oc2cc(O)ccc12)C(=O)O.O=C(O)C(F)(F)F [compound 7, (1S)-1-Carboxy-2-(7-hydroxy-2-oxo-2H-chromen-4-yl)ethyl ammonium trifluoroacetate]
successfully functionalized: TTL mediated functionalization of Tub-tagged Annexin V (SDS-PAGE and in-gel fluorescence (FIG. 10)) | TTL mediated functionalization of Tub-tagged GBP nanobody (1 mM (7), 5 μM nanobody, SDS-PAGE and in-gel fluorescence (FIG. 9)) | TTL mediated functionalization of Tub-tagged ubiquitin (1 mM (7), 5 μM ubiquitin, SDS-PAGE and in-gel fluorescence (FIG. 8))

Reference: patent US11572384B2, “Unusual substrates of tubulin tyrosine ligase” (FORSCHUNGSVERBUND BERLIN E.V., priority 2016, dated 2023)
